This note sets out measurements from US20100311714A1, “1H-IMIDAZO[4,5-c]QUINOLINONE COMPOUNDS” (priority 2009, published 2010).

What all share (format): biochemical
One assay deals with T1, PI3K delta (Homo sapiens, UniProt O00329).
T1 construct: for the full-length p110-d subunit are generated and fused by overlapping PCR; His tag (C); made in house; host or cells: baculovirus BV1060; Tn5 (Trichoplusia ni) or TiniPro insect cells
The experiment in a line: PI3K delta kinase assay (Kinase-Glo luminescence). Summed up: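 Kinase-Glo ATP-depletion luminescence using 10 nM p85(iSH2)-linker-p110δ full-length His-tag construct from insect cells, with 1 μM ATP and 10 μg/mL phosphatidylinositol in 10 mM Tris pH 7.5, 3 mM MgCl2, 50 mM NaCl, 0.05% CHAPS, 1 mM DTT. 60 min room temperature; IC50 from 4-parameter logistic fit over 8 concentrations.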

The target in a further assay is T2, PI3K beta (Homo sapiens, UniProt P42338).
T2 construct: for the full-length p110-b subunit are generated and fused by overlapping PCR; His tag (C); made in house; host or cells: baculovirus BV949; Tn5 (Trichoplusia ni) or TiniPro insect cells
The experiment in a line: PI3K beta kinase assay (Kinase-Glo luminescence). Summed up:
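PI3Kβ construct BV949 (p85 iSH2–p110β full-length, C-His), 25 nM, reacted with 1 μM ATP and 10 μg/mL phosphatidylinositol in Tris pH 7.5, MgCl2, NaCl, CHAPS, DTT buffer, 60 min at room temperature. Remaining ATP by Kinase-Glo luminescence; IC50 from 4-parameter logistic fit of 8 concentrations.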
In general terms: In Kinase-Glo more light means more ATP remaining.

Another assay has as its target T3, PI3K alfa (Homo sapiens, UniProt P42336).
T3 construct: His tag (C); made in house; host or cells: baculovirus BV1075; Tn5 (Trichoplusia ni) or TiniPro insect cells
The experiment in a line: PI3K alpha kinase assay (Kinase-Glo luminescence). Summed up:
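Kinase-Glo luminescence read of ATP remaining after PI3Kα (10 nM) phosphorylates 10 μg/mL bovine liver phosphatidylinositol with 1 μM ATP, pH 7.5 TRIS, 3 mM MgCl2, 0.05% CHAPS; 60 min at room temperature. IC50 from 4-parameter logistic fit over 8 concentrations.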

SMILES strings stand for the structures. Read-outs that look alike come from different tables or passages of the source.

T2 sequence (P42338 with tags, fused parts or gaps limits assumed): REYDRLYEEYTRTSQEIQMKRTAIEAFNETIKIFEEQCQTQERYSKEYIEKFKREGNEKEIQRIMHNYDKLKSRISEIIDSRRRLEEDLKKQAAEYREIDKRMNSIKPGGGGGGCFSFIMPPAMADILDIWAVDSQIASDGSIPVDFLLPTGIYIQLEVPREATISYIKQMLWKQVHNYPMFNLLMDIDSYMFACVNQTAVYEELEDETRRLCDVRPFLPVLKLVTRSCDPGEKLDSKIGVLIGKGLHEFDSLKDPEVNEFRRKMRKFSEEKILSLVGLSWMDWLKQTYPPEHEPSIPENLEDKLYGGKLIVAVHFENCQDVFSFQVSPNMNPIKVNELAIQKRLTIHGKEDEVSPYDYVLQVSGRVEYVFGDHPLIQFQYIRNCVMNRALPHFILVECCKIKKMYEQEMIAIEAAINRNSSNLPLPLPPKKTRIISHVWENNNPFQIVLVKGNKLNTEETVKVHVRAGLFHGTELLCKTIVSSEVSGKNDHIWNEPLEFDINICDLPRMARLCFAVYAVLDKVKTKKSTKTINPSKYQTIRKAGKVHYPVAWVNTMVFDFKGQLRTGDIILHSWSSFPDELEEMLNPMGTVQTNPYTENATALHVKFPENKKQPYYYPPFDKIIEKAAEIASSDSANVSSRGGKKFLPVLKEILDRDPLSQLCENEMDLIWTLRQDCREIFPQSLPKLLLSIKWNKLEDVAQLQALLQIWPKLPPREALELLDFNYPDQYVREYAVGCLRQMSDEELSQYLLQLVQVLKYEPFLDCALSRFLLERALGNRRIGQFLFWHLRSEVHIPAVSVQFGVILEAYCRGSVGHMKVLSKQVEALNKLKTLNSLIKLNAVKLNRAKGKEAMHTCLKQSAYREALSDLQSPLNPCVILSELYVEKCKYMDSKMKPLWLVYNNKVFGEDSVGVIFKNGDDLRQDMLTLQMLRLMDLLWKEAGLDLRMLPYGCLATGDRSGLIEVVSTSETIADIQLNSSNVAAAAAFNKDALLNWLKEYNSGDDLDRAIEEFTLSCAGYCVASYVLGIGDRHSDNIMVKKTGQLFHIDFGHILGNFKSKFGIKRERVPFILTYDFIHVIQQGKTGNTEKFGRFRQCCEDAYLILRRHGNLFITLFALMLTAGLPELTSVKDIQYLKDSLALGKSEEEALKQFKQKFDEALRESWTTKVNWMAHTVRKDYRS
T1 sequence (O00329 with tags, fused parts or gaps limits assumed): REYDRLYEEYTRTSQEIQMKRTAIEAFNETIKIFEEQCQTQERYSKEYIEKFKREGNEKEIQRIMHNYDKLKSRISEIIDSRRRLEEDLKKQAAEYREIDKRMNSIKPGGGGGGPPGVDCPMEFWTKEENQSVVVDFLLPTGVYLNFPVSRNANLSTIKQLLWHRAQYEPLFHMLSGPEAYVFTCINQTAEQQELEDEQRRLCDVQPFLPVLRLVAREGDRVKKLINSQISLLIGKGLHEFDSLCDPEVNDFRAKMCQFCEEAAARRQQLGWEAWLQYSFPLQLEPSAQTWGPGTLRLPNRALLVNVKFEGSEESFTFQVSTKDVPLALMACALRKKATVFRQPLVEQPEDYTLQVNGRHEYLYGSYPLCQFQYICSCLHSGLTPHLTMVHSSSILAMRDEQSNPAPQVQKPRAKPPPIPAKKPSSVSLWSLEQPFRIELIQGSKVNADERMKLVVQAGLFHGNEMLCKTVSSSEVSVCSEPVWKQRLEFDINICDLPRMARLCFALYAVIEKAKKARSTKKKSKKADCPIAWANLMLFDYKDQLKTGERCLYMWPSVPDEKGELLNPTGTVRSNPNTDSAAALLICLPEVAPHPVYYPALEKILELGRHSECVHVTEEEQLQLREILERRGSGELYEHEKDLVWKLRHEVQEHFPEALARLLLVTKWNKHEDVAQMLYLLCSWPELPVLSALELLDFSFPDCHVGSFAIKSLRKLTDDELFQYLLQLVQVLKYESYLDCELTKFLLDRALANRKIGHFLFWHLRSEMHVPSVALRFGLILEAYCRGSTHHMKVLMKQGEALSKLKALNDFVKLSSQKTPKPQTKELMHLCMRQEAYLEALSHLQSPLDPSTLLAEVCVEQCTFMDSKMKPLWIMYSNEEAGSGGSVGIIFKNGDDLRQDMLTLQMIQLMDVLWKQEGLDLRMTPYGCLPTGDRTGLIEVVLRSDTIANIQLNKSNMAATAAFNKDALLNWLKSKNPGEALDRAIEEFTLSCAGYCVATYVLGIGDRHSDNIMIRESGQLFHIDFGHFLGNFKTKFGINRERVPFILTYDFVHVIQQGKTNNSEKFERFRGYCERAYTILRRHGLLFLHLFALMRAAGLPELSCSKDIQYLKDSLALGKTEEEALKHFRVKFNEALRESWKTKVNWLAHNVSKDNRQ
T3 sequence (P42336 with tags, fused parts or gaps limits assumed): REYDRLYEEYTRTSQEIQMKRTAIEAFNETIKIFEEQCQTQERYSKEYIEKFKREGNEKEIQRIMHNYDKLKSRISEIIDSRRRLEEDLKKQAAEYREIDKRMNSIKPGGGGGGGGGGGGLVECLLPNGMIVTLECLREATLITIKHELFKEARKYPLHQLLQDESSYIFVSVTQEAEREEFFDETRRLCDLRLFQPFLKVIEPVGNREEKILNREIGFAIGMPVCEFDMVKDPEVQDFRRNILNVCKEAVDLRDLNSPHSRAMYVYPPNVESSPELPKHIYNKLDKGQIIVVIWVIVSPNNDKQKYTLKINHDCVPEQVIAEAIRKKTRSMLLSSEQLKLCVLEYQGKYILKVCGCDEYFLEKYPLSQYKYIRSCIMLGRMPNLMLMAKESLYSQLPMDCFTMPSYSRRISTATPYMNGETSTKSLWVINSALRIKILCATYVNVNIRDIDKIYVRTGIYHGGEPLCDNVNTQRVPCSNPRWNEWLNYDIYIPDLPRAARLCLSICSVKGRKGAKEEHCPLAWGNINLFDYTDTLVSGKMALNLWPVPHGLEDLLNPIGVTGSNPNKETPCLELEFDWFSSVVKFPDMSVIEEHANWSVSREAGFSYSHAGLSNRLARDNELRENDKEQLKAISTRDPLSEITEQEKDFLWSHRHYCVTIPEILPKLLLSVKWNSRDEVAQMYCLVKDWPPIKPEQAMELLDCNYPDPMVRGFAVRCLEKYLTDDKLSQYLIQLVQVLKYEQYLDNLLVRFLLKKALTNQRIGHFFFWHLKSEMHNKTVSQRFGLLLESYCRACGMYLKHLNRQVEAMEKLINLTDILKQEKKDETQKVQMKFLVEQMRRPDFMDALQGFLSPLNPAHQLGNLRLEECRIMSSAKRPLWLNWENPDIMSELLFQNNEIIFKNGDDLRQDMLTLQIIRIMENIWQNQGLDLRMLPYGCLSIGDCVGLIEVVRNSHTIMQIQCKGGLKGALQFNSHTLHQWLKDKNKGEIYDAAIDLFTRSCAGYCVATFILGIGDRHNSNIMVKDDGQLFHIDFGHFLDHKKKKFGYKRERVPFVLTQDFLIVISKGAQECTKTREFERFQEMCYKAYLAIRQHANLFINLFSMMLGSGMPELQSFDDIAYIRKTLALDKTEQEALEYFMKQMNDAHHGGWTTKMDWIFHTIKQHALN

For `CNC(=O)c1ccc(-c2ccc3ncc4c(c3c2)n(-c2cccnc2C)c(=O)n4C)cc1` [Example 2.4, N-Methyl-4-[3-methyl-1-(2-methyl-pyridin-3-yl)-2-oxo-2,3-dihydro-1H-imidazo[4,5-c]quinolin-8-yl]-benzamide], the IC50 on PI3K delta (read-out: PI3Kdelta/IC50) is 221 nM; on PI3K beta (read-out: PI3Kbeta/IC50), 682 nM; on PI3K alfa (read-out: PI3Kalfa/IC50), 29 nM.

For `Cc1ncccc1-n1c(=O)n(C)c2cnc3ccc(-c4cnc5[nH]ccc5c4)cc3c21` [Example 2.8, 3-Methyl-1-(2-methyl-pyridin-3-yl)-8-(1H-pyrrolo[2,3-b]pyridin-5-yl)-1,3-dihydro-imidazo[4,5-c]quinolin-2-one], the IC50 amounted to 35 nM on PI3K delta (read-out: PI3Kdelta/IC50), 173 nM at PI3K beta (read-out: PI3Kbeta/IC50) and 26 nM on PI3K alfa (read-out: PI3Kalfa/IC50).

With `COCc1ncc(-c2ccc3ncc4c(c3c2)n(-c2cccnc2C)c(=O)n4C)cc1OC` [Example 2.30, 8-(5-Methoxy-6-methoxymethyl-pyridin-3-yl)-3-methyl-1-(2-methyl-pyridin-3-yl)-1,3-dihydro-imidazo[4,5-c]quinolin-2-one], the values for the IC50 at PI3K delta (read-out: EPK_PI3Kdelta/IC50), at PI3K beta (read-out: EPK_PI3Kbeta/IC50) and at PI3K alfa (read-out: EPK_PI3Kalfa/IC50) were 53 nM, 395 nM and 75 nM, respectively.

As to `Cn1c(=O)n(-c2cccnc2F)c2c3cc(-c4cnc5[nH]ccc5c4)ccc3ncc21` [Example 6.3, 1-(2-Fluoro-pyridin-3-yl)-3-methyl-8-(1H-pyrrolo[2,3-b]pyridin-5-yl)-1,3-dihydro-imidazo[4,5-c]quinolin-2-one], the IC50 was 78 nM at PI3K delta (read-out: PI3Kdelta/IC50), 112 nM at PI3K beta (read-out: PI3Kbeta/IC50) and 41 nM on PI3K alfa (read-out: PI3Kalfa/IC50).

`Cc1nc(F)ccc1-n1c(=O)n(C)c2cnc3ccc(-c4cncc(N5CCC5)c4)cc3c21` [Example 7.6, 8-(5-Azetidin-1-yl-pyridin-3-yl)-1-(6-fluoro-2-methyl-pyridin-3-yl)-3-methyl-1,3-dihydro-imidazo[4,5-c]quinolin-2-one]: the values for the IC50 on PI3K delta (read-out: EPK_PI3Kdelta/IC50), at PI3K beta (read-out: EPK_PI3Kbeta/IC50) and on PI3K alfa (read-out: EPK_PI3Kalfa/IC50) were 148 nM, 965 nM and 68 nM, respectively.

Turning to `COCc1ncc(-c2ccc3ncc4c(c3c2)n(-c2ccc(F)nc2C)c(=O)n4C)cc1OC` [Example 7.7, 1-(6-Fluoro-2-methyl-pyridin-3-yl)-8-(5-methoxy-6-methoxymethyl-pyridin-3-yl)-3-methyl-1,3-dihydro-imidazo[4,5-c]quinolin-2-one], the IC50 at PI3K delta (read-out: EPK_PI3Kdelta/IC50) was 79 nM; on PI3K beta (read-out: EPK_PI3Kbeta/IC50), 359 nM; at PI3K alfa (read-out: EPK_PI3Kalfa/IC50), 127 nM.

As for `COc1cc(-c2ccc3ncc4c(c3c2)n(-c2ccc(F)nc2C)c(=O)n4C)cnc1CO` [Example 7.10, 1-(6-Fluoro-2-methyl-pyridin-3-yl)-8-(6-hydroxymethyl-5-methoxy-pyridin-3-yl)-3-methyl-1,3-dihydro-imidazo[4,5-c]quinolin-2-one], the IC50 was found to be 186 nM at PI3K delta (read-out: EPK_PI3Kdelta/IC50), 20 nM at PI3K beta (read-out: EPK_PI3Kbeta/IC50) and 24 nM at PI3K alfa (read-out: EPK_PI3Kalfa/IC50).

For `COc1ccc(-n2c(=O)n(C)c3cnc4ccc(-c5cncc(N6CCC6)c5)cc4c32)c(OC)n1` [Example 8.11, 8-(5-Azetidin-1-yl-pyridin-3-yl)-1-(2,6-dimethoxy-pyridin-3-yl)-3-methyl-1,3-dihydro-imidazo[4,5-c]quinolin-2-one], the IC50 was 126 nM on PI3K delta (read-out: EPK_PI3Kdelta/IC50), 730 nM at PI3K beta (read-out: EPK_PI3Kbeta/IC50) and 365 nM at PI3K alfa (read-out: EPK_PI3Kalfa/IC50).

As for `COc1ccc(-n2c(=O)n(C)c3cnc4ccc(-c5cnc(C(OC)OC)c(OC)c5)cc4c32)c(OC)n1` [Example 8.13, 8-(6-Dimethoxymethyl-5-methoxy-pyridin-3-yl)-1-(2,6-dimethoxy-pyridin-3-yl)-3-methyl-1,3-dihydro-imidazo[4,5-c]quinolin-2-one], the IC50 at PI3K delta (read-out: EPK_PI3Kdelta/IC50) turned out to be 167 nM; on PI3K beta (read-out: EPK_PI3Kbeta/IC50) it was 265 nM; on PI3K alfa (read-out: EPK_PI3Kalfa/IC50) it was 247 nM.

Consider `COc1ccc(-n2c(=O)n(C)c3cnc4ccc(-c5cnc(CO)c(OC)c5)cc4c32)c(OC)n1` [Example 8.14, 1-(2,6-Dimethoxy-pyridin-3-yl)-8-(6-hydroxymethyl-5-methoxy-pyridin-3-yl)-3-methyl-1,3-dihydro-imidazo[4,5-c]quinolin-2-one], for which the IC50 stood at 311 nM at PI3K delta (read-out: EPK_PI3Kdelta/IC50), 1550 nM on PI3K beta (read-out: EPK_PI3Kbeta/IC50) and 59 nM on PI3K alfa (read-out: EPK_PI3Kalfa/IC50).

Take `COc1cc(-c2ccc3ncc4c(c3c2)n(-c2ccc(N3CC(F)(F)C3)nc2C)c(=O)n4C)cnc1CO` [Example 24.4, 1-[6-(3,3-Difluoro-azetidin-1-yl)-2-methyl-pyridin-3-yl]-8-(6-hydroxymethyl-5-methoxy-pyridin-3-yl)-3-methyl-1,3-dihydro-imidazo[4,5-c]quinolin-2-one]: the IC50 stood at 248 nM at PI3K delta (read-out: EPK_PI3Kdelta/IC50), 2270 nM on PI3K beta (read-out: EPK_PI3Kbeta/IC50) and 56 nM at PI3K alfa (read-out: EPK_PI3Kalfa/IC50).

Regarding `COc1cc(-c2ccc3ncc4c(c3c2)n(-c2ccc(N3CCCC3)nc2C)c(=O)n4C)cnc1CO` [Example 25.4, 8-(6-Hydroxymethyl-5-methoxy-pyridin-3-yl)-3-methyl-1-(2-methyl-6-pyrrolidin-1-yl-pyridin-3-yl)-1,3-dihydro-imidazo[4,5-c]quinolin-2-one], the IC50 worked out at 272 nM at PI3K delta (read-out: EPK_PI3Kdelta/IC50), 269 nM at PI3K beta (read-out: EPK_PI3Kbeta/IC50) and 27 nM on PI3K alfa (read-out: EPK_PI3Kalfa/IC50).

Regarding `CCNc1cc(-c2ccc3ncc4c(c3c2)n(-c2ccc(N3CCCC3)nc2C)c(=O)n4C)cnc1CO` [Example 25.5, 8-(5-Ethylamino-6-hydroxymethyl-pyridin-3-yl)-3-methyl-1-(2-methyl-6-pyrrolidin-1-yl-pyridin-3-yl)-1,3-dihydro-imidazo[4,5-c]quinolin-2-one], the IC50 on PI3K delta (read-out: EPK_PI3Kdelta/IC50) was found to be 33 nM; at PI3K beta (read-out: EPK_PI3Kbeta/IC50), 12 nM; on PI3K alfa (read-out: EPK_PI3Kalfa/IC50) it was 28 nM.

As to `CCNc1cc(-c2ccc3ncc4c(c3c2)n(-c2ccc(N(C)CCO)nc2C)c(=O)n4C)cnc1CO` [Example 26.3, 8-(5-Ethylamino-6-hydroxymethyl-pyridin-3-yl)-1-{6-[(2-hydroxy-ethyl)-methyl-amino]-2-methyl-pyridin-3-yl}-3-methyl-1,3-dihydro-imidazo[4,5-c]quinolin-2-one], the results for the IC50 at PI3K delta (read-out: EPK_PI3Kdelta/IC50), at PI3K beta (read-out: EPK_PI3Kbeta/IC50) and on PI3K alfa (read-out: EPK_PI3Kalfa/IC50) were 287 nM, 2010 nM and 84 nM, respectively.

With `Cc1nc(N2CCC(O)C2)ccc1-n1c(=O)n(C)c2cnc3ccc(-c4cnc(N)c(C(F)(F)F)c4)cc3c21` (stereo not drawn) [Example 27.3, 8-(6-Amino-5-trifluoromethyl-pyridin-3-yl)-1-[6-(3-hydroxy-pyrrolidin-1-yl)-2-methyl-pyridin-3-yl]-3-methyl-1,3-dihydro-imidazo[4,5-c]quinolin-2-one], the IC50 was under 3 nM at PI3K delta (read-out: EPK_PI3Kdelta/IC50), 36 nM at PI3K beta (read-out: EPK_PI3Kbeta/IC50) and 5 nM at PI3K alfa (read-out: EPK_PI3Kalfa/IC50).

As for `CCOc1ccc(-c2ccc3ncc4c(c3c2)n(-c2ccc(N3CCC(O)C3)nc2C)c(=O)n4C)cn1` (stereo not drawn) [Example 27.4, 8-(6-Ethoxy-pyridin-3-yl)-1-[6-(3-hydroxy-pyrrolidin-1-yl)-2-methyl-pyridin-3-yl]-3-methyl-1,3-dihydro-imidazo[4,5-c]quinolin-2-one], the IC50 on PI3K delta (read-out: EPK_PI3Kdelta/IC50) turned out to be 193 nM; at PI3K beta (read-out: EPK_PI3Kbeta/IC50) it was 904 nM; at PI3K alfa (read-out: EPK_PI3Kalfa/IC50), 39 nM.

For `Cc1nc(N2CCC(O)C2)ccc1-n1c(=O)n(C)c2cnc3ccc(-c4cncc(C(C)(C)O)c4)cc3c21` (stereo not drawn) [Example 27.5, 8-[5-(1-Hydroxy-1-methyl-ethyl)-pyridin-3-yl]-1-[6-(3-hydroxy-pyrrolidin-1-yl)-2-methyl-pyridin-3-yl]-3-methyl-1,3-dihydro-imidazo[4,5-c]quinolin-2-one], the IC50 on PI3K delta (read-out: EPK_PI3Kdelta/IC50) came out at 148 nM; on PI3K beta (read-out: EPK_PI3Kbeta/IC50), 17 nM; on PI3K alfa (read-out: EPK_PI3Kalfa/IC50), 10 nM.

`CNc1ncc(-c2ccc3ncc4c(c3c2)n(-c2ccc(N3CCC(OC)C3)nc2C)c(=O)n4C)cn1` (stereo not drawn) [Example 28.2, 1-[6-(3-Methoxy-pyrrolidin-1-yl)-2-methyl-pyridin-3-yl]-3-methyl-8-(2-methylamino-pyrimidin-5-yl)-1,3-dihydro-imidazo[4,5-c]quinolin-2-one]: the results for the IC50 on PI3K delta (read-out: EPK_PI3Kdelta/IC50), at PI3K beta (read-out: EPK_PI3Kbeta/IC50) and at PI3K alfa (read-out: EPK_PI3Kalfa/IC50) were 159 nM, 299 nM and 34 nM, respectively.

For `COc1cc(-c2ccc3ncc4c(c3c2)n(-c2ccc(N3CCC(OC)C3)nc2C)c(=O)n4C)cnc1CO` (stereo not drawn) [Example 28.3, 8-(6-Hydroxymethyl-5-methoxy-pyridin-3-yl)-1-[6-(3-methoxy-pyrrolidin-1-yl)-2-methyl-pyridin-3-yl]-3-methyl-1,3-dihydro-imidazo[4,5-c]quinolin-2-one], the IC50 at PI3K delta (read-out: EPK_PI3Kdelta/IC50) worked out at 42 nM; on PI3K beta (read-out: EPK_PI3Kbeta/IC50), 175 nM; at PI3K alfa (read-out: EPK_PI3Kalfa/IC50), 23 nM.

For the compound `Cc1nc(N2CC(O)C2)ccc1-n1c(=O)n(C)c2cnc3ccc(-c4cncc(C(C)(C)O)c4)cc3c21` [Example 29.1, 1-[6-(3-Hydroxy-azetidin-1-yl)-2-methyl-pyridin-3-yl]-8-[5-(1-hydroxy-1-methyl-ethyl)-pyridin-3-yl]-3-methyl-1,3-dihydro-imidazo[4,5-c]quinolin-2-one], the figures for the IC50 on PI3K delta (read-out: EPK_PI3Kdelta/IC50), on PI3K beta (read-out: EPK_PI3Kbeta/IC50) and on PI3K alfa (read-out: EPK_PI3Kalfa/IC50) were 19 nM, 60 nM and 19 nM, respectively.
